# Assay results as given in patent US9212182B2, “Bicyclic sulfonamide compounds as sodium channel inhibitors” (AMGEN INC., priority 2013, dated 2015).
# Target: Nav 1.7 (Homo sapiens (Human), UniProt Q15858)
# Assay: in-vitro Nav 1.7 PX (IC50)
# Assay type: cell-based
# Details: in-vitro Nav 1.7 PX data
# Nav 1.7, sequence (Q15858 whole entry): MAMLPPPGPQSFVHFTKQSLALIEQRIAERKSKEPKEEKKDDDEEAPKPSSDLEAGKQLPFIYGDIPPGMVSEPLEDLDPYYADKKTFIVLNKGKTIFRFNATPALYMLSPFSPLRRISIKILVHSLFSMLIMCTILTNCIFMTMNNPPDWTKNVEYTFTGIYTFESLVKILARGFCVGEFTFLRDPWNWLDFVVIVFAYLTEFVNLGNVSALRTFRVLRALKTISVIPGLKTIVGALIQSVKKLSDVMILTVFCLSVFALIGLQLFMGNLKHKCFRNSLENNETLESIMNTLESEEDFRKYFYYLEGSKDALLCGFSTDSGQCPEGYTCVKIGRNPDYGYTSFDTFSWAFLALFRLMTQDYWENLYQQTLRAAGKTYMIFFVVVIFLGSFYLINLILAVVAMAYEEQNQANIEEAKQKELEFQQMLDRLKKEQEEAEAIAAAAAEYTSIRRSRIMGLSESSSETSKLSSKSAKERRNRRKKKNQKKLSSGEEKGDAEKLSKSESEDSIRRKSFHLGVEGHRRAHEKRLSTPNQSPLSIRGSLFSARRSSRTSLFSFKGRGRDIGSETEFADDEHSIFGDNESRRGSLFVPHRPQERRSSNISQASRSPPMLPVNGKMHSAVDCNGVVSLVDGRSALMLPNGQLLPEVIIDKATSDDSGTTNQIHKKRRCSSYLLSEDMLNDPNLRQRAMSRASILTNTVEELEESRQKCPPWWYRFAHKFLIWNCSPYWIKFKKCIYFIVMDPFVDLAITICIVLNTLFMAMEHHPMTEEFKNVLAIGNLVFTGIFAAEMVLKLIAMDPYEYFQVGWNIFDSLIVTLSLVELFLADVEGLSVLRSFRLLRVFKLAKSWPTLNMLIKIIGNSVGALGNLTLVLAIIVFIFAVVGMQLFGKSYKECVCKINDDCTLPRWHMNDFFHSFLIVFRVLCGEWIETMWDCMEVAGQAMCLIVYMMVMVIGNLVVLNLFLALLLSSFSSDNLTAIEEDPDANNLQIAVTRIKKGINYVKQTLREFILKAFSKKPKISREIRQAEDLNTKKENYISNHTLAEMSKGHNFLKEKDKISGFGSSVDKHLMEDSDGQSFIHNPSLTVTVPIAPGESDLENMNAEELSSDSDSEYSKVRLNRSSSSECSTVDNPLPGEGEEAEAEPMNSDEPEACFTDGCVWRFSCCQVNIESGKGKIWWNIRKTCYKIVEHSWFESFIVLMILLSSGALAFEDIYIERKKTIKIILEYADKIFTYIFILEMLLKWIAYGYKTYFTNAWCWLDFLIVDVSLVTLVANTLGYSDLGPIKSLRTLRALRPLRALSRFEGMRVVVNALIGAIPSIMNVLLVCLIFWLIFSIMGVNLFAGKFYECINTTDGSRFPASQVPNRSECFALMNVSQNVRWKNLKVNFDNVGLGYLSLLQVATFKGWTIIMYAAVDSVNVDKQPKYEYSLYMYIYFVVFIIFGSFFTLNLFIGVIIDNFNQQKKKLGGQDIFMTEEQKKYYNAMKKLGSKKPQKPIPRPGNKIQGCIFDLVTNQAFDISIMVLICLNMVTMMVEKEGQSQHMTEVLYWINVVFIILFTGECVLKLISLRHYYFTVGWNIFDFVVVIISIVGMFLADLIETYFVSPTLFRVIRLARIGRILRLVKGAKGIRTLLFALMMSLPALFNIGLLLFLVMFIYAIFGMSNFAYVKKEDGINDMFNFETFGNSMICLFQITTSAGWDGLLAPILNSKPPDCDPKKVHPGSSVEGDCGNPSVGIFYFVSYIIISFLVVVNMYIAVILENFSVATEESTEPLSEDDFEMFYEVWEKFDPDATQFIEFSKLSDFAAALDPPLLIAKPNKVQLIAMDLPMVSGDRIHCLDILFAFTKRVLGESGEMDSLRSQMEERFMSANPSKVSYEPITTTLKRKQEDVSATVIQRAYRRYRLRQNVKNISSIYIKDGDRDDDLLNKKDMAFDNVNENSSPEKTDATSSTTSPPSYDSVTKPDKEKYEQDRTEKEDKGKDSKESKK
row,SMILES,IC50 [nM]
1,"COc1cc(-c2ccc(F)c(F)c2)ccc1-n1c(=O)ccc2cc(S(=O)(=O)Nc3cccnn3)ccc21 [Example 896, 1-(3′,4′-difluoro-3-methoxy-4-biphenylyl)-2-oxo-N-3-pyridazinyl-1,2-dihydro-6-quinolinesulfonamide]",47
2,"COc1cc(-c2ccc(F)c(F)c2)ccc1-n1c(=O)ccc2cc(S(=O)(=O)Nc3ncccn3)ccc21 [Example 897, 1-(3′,4′-difluoro-3-methoxy-4-biphenylyl)-2-oxo-N-2-pyrimidinyl-1,2-dihydro-6-quinolinesulfonamide]",100
3,"COc1cc(-c2ccc(F)c(F)c2)ccc1-n1c(=O)ccc2cc(S(=O)(=O)Nc3cc(C)ncn3)ccc21 [Example 899, 1-(3′,4′-difluoro-3-methoxy-4-biphenylyl)-N-(6-methyl-4-pyrimidinyl)-2-oxo-1,2-dihydro-6-quinolinesulfonamide]",107
4,"COc1cc(-c2ccc(F)c(F)c2)ccc1-n1c(=O)ccc2cc(S(=O)(=O)Nc3ccnc(C)n3)ccc21 [Example 900, 1-(3′,4′-difluoro-3-methoxy-4-biphenylyl)-N-(2-methyl-4-pyrimidinyl)-2-oxo-1,2-dihydro-6-quinolinesulfonamide]",285
5,"COc1cc(-c2cccc(C(F)(F)F)c2)ccc1-n1c(=O)ccc2cc(S(=O)(=O)Nc3cnccn3)ccc21 [Example 915, 1-(3-methoxy-3′-(trifluoromethyl)-4-biphenylyl)-2-oxo-N-2-pyrazinyl-1,2-dihydro-6-quinolinesulfonamide]",31
6,"COc1cc(-c2cccc(C(F)(F)F)c2)ccc1-n1c(=O)ccc2cc(S(=O)(=O)Nc3ncco3)ccc21 [Example 916, 1-(3-methoxy-3′-(trifluoromethyl)-4-biphenylyl)-N-1,3-oxazol-2-yl-2-oxo-1,2-dihydro-6-quinolinesulfonamide]",50
7,"COc1cc(-c2cccc(C(F)(F)F)c2)ccc1-n1c(=O)ccc2cc(S(=O)(=O)Nc3ncc(F)cn3)ccc21 [Example 917, N-(5-fluoro-2-pyrimidinyl)-1-(3-methoxy-3′-(trifluoromethyl)-4-biphenylyl)-2-oxo-1,2-dihydro-6-quinolinesulfonamide]",31
8,"COc1cc(-c2cccc(C(F)(F)F)c2)ccc1-n1c(=O)ccc2cc(S(=O)(=O)Nc3ccc(F)cn3)ccc21 [Example 918, N-(5-fluoro-2-pyridinyl)-1-(3-methoxy-3′-(trifluoromethyl)-4-biphenylyl)-2-oxo-1,2-dihydro-6-quinolinesulfonamide]",93
9,"COc1cc(-c2cccc(C(F)(F)F)c2)ccc1-n1c(=O)ccc2cc(S(=O)(=O)Nc3ncon3)ccc21 [Example 919, 1-(3-methoxy-3′-(trifluoromethyl)-4-biphenylyl)-N-1,2,4-oxadiazol-3-yl-2-oxo-1,2-dihydro-6-quinolinesulfonamide]",22
10,"COc1cc(Cl)cc(-c2ccc(-n3c(=O)ccc4cc(S(=O)(=O)Nc5ncccn5)ccc43)c(OC)c2)c1 [Example 923, 1-(3′-chloro-3,5′-dimethoxy-4-biphenylyl)-2-oxo-N-2-pyrimidinyl-1,2-dihydro-6-quinolinesulfonamide]",12
11,"COc1cc(Cl)cc(-c2ccc(-n3c(=O)ccc4cc(S(=O)(=O)Nc5ncco5)ccc43)c(OC)c2)c1 [Example 925, 1-(3′-chloro-3,5′-dimethoxy-4-biphenylyl)-N-1,3-oxazol-2-yl-2-oxo-1,2-dihydro-6-quinolinesulfonamide]",22
12,"COc1cc(Cl)cc(-c2ccc(-n3c(=O)ccc4cc(S(=O)(=O)Nc5ncc(F)cn5)ccc43)c(OC)c2)c1 [Example 927, 1-(3′-chloro-3,5′-dimethoxy-4-biphenylyl)-N-(5-fluoro-2-pyrimidinyl)-2-oxo-1,2-dihydro-6-quinolinesulfonamide]",15
13,"COc1cc(Cl)cc(-c2ccc(-n3c(=O)ccc4cc(S(=O)(=O)Nc5cccnn5)ccc43)c(OC)c2)c1 [Example 928, 1-(3′-chloro-3,5′-dimethoxy-4-biphenylyl)-2-oxo-N-3-pyridazinyl-1,2-dihydro-6-quinolinesulfonamide]",8
14,"COc1cc(-c2ccc(F)c(F)c2)c(F)cc1-n1c(=O)ccc2cc(S(=O)(=O)Nc3ncccn3)ccc21 [Example 935, 2-oxo-N-2-pyrimidinyl-1-(2,3′,4′-trifluoro-5-methoxy-4-biphenylyl)-1,2-dihydro-6-quinolinesulfonamide]",22

# The next lines start with the values.
row,IC50 [nM],SMILES
1,44,"COc1cc(-c2ccc(Cl)c(C#N)c2)c(F)cc1-n1c(=O)ccc2cc(S(=O)(=O)Nc3cc(C)ncn3)ccc21 [Example 898, 1-(4′-chloro-3′-cyano-2-fluoro-5-methoxy-4-biphenylyl)-N-(6-methyl-4-pyrimidinyl)-2-oxo-1,2-dihydro-6-quinolinesulfonamide]"
2,77,"COc1ccc(-c2cc(F)cc(Cl)c2)cc1-n1c(=O)ccc2cc(S(=O)(=O)Nc3cccnn3)ccc21 [Example 902, 1-(3′-chloro-5′-fluoro-4-methoxy-3-biphenylyl)-2-oxo-N-3-pyridazinyl-1,2-dihydro-6-quinolinesulfonamide]"
3,60,"COc1cc(-c2cc(F)cc(Cl)c2)c(F)cc1-n1c(=O)ccc2cc(S(=O)(=O)Nc3ccc(F)cn3)ccc21 [Example 920, 1-(3′-chloro-2,5′-difluoro-5-methoxy-4-biphenylyl)-N-(5-fluoro-2-pyridinyl)-2-oxo-1,2-dihydro-6-quinolinesulfonamide]"
4,37,"COc1cc(-c2cc(F)cc(Cl)c2)c(F)cc1-n1c(=O)ccc2cc(S(=O)(=O)Nc3ccsn3)ccc21 [Example 921, 1-(3′-chloro-2,5′-difluoro-5-methoxy-4-biphenylyl)-N-3-isothiazolyl-2-oxo-1,2-dihydro-6-quinolinesulfonamide]"
5,4,"COc1cc(-c2cc(F)cc(Cl)c2)c(F)cc1-n1c(=O)ccc2cc(S(=O)(=O)Nc3cnsn3)ccc21 [Example 922, 1-(3′-chloro-2,5′-difluoro-5-methoxy-4-biphenylyl)-2-oxo-N-1,2,5-thiadiazol-3-yl-1,2-dihydro-6-quinolinesulfonamide]"
6,6,"COc1cc(Cl)cc(-c2cc(OC)c(-n3c(=O)ccc4cc(S(=O)(=O)Nc5ncco5)ccc43)cc2F)c1 [Example 926, 1-(3′-chloro-2-fluoro-5,5′-dimethoxy-4-biphenylyl)-N-1,3-oxazol-2-yl-2-oxo-1,2-dihydro-6-quinolinesulfonamide]"
7,23,"COc1cc(Cl)cc(-c2cc(OC)c(-n3c(=O)ccc4cc(S(=O)(=O)Nc5ncc(F)cn5)ccc43)cc2F)c1 [Example 929, 1-(3′-chloro-2-fluoro-5,5′-dimethoxy-4-biphenylyl)-N-(5-fluoro-2-pyrimidinyl)-2-oxo-1,2-dihydro-6-quinolinesulfonamide]"
8,14,"COc1cc(Cl)cc(-c2cc(OC)c(-n3c(=O)ccc4cc(S(=O)(=O)Nc5cccnn5)ccc43)cc2F)c1 [Example 930, 1-(3′-chloro-2-fluoro-5,5′-dimethoxy-4-biphenylyl)-2-oxo-N-3-pyridazinyl-1,2-dihydro-6-quinolinesulfonamide]"
9,128,"COc1cc(-c2ccc(Cl)c(C)c2)c(F)cc1-n1c(=O)ccc2cc(S(=O)(=O)Nc3cc(C)on3)ccc21 [Example 931, 1-(4′-chloro-2-fluoro-5-methoxy-3′-methyl-4-biphenylyl)-N-(5-methyl-3-isoxazolyl)-2-oxo-1,2-dihydro-6-quinolinesulfonamide]"
10,78,"COc1cc(-c2ccc(Cl)c(C)c2)c(F)cc1-n1c(=O)ccc2cc(S(=O)(=O)Nc3cscn3)ccc21 [Example 932, 1-(4′-chloro-2-fluoro-5-methoxy-3′-methyl-4-biphenylyl)-2-oxo-N-1,3-thiazol-4-yl-1,2-dihydro-6-quinolinesulfonamide]"
11,8,"COc1cc(-c2cc(F)cc(Cl)c2)c(F)cc1-n1c(=O)ccc2cc(S(=O)(=O)Nc3cc(C)ncn3)ccc21 [Example 933, 1-(3′-chloro-2,5′-difluoro-5-methoxy-4-biphenylyl)-N-(6-methyl-4-pyrimidinyl)-2-oxo-1,2-dihydro-6-quinolinesulfonamide]"
12,6,"COc1cc(-c2cc(F)cc(Cl)c2)c(F)cc1-n1c(=O)ccc2cc(S(=O)(=O)Nc3ccnc(C)n3)ccc21 [Example 934, 1-(3′-chloro-2,5′-difluoro-5-methoxy-4-biphenylyl)-N-(2-methyl-4-pyrimidinyl)-2-oxo-1,2-dihydro-6-quinolinesulfonamide]"
13,41,"COc1cc(-c2ccc(F)c(F)c2)c(F)cc1-n1c(=O)ccc2cc(S(=O)(=O)Nc3ncco3)ccc21 [Example 936, N-1,3-oxazol-2-yl-2-oxo-1-(2,3′,4′-trifluoro-5-methoxy-4-biphenylyl)-1,2-dihydro-6-quinolinesulfonamide]"
14,29,"COc1cc(-c2ccc(F)c(F)c2)c(F)cc1-n1c(=O)ccc2cc(S(=O)(=O)Nc3ncc(F)cn3)ccc21 [Example 937, N-(5-fluoro-2-pyrimidinyl)-2-oxo-1-(2,3′,4′-trifluoro-5-methoxy-4-biphenylyl)-1,2-dihydro-6-quinolinesulfonamide]"
15,47,"COc1cc(-c2ccc(F)c(F)c2)c(F)cc1-n1c(=O)ccc2cc(S(=O)(=O)Nc3cc(C)ncn3)ccc21 [Example 938, N-(6-methyl-4-pyrimidinyl)-2-oxo-1-(2,3′,4′-trifluoro-5-methoxy-4-biphenylyl)-1,2-dihydro-6-quinolinesulfonamide]"
16,41,"COc1cc(-c2ccc(F)c(F)c2)c(F)cc1-n1c(=O)ccc2cc(S(=O)(=O)Nc3ccnc(C)n3)ccc21 [Example 939, N-(2-methyl-4-pyrimidinyl)-2-oxo-1-(2,3′,4′-trifluoro-5-methoxy-4-biphenylyl)-1,2-dihydro-6-quinolinesulfonamide]"
17,34,"COc1cc(-c2ccc(F)c(C)c2)c(F)cc1-n1c(=O)ccc2cc(S(=O)(=O)Nc3ncccn3)ccc21 [Example 940, 1-(2,4′-difluoro-5-methoxy-3′-methyl-4-biphenylyl)-2-oxo-N-2-pyrimidinyl-1,2-dihydro-6-quinolinesulfonamide]"
18,31,"COc1cc(-c2ccc(F)c(C)c2)c(F)cc1-n1c(=O)ccc2cc(S(=O)(=O)Nc3ncc(F)cn3)ccc21 [Example 942, 1-(2,4′-difluoro-5-methoxy-3′-methyl-4-biphenylyl)-N-(5-fluoro-2-pyrimidinyl)-2-oxo-1,2-dihydro-6-quinolinesulfonamide]"
